Target: T1, HMG-CoA reductase (Rattus norvegicus, UniProt P51639)
T1 sequence (P51639 1-887): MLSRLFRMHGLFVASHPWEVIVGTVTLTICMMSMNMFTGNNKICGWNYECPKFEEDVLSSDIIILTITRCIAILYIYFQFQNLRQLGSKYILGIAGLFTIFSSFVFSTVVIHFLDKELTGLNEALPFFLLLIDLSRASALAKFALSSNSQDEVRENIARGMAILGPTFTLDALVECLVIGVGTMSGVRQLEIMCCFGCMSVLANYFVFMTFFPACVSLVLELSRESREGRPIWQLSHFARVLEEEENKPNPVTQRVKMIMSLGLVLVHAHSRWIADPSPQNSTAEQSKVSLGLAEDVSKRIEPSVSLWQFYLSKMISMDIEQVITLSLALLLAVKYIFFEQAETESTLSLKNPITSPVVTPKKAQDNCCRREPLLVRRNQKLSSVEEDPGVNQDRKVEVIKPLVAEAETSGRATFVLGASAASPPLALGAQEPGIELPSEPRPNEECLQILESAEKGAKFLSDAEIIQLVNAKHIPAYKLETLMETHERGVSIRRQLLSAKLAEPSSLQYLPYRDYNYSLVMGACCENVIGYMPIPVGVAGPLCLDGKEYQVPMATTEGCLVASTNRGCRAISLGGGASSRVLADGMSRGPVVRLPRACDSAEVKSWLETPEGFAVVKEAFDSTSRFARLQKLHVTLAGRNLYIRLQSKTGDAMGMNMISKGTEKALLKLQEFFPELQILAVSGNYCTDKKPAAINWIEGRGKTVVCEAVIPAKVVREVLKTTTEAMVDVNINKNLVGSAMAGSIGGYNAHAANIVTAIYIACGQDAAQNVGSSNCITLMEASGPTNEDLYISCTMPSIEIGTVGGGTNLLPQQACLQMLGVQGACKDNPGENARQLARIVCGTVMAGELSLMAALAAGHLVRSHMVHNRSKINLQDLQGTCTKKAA
Assay: intrinsic HMG-CoA reductase inhibition, in vitro protocol of J. Med. Chem., 28, p. 347-358 (1985)
Type: biochemical
Conditions: IC50 of test compound compared with that of compactin determined simultaneously; compactin = 100
Method: The intrinsic HMG-CoA reductase inhibition activity of the claimed compounds is measured in the in vitro protocol published in J. Med. Chem., 28, p. 347-358 (1985).
For estimation of relative inhibitory potencies, compactin (i.e., mevastatin) was assigned a value of 100 and the IC50 value of the test compound was compared with that of compactin determined simultaneously in the published in vitro protocol.

| Compound | Relative Potency |
| --- | --- |
| CCC(C)(C)C(=O)O[C@H]1CC(C)(C)C[C@@H]2CC[C@H](C)[C@H](CC[C@@H]3C[C@@H](O)CC(=O)O3)[C@H]21 [1,1-dimethylpropyl CH3 CH3, 6(R)-[2-(8(S)-(2,2-Dimethylbutyryloxy)-2(S),6,6-trimethyl-1,2,3,4,4a(S),5,6,7,8,8a(S)-decahydronaphthyl-1(S)]ethyl]-4(R) hydroxy-3,4,5,6-tetrahydro-2H pyran-2-one] | 111 |
| CCC(C)(C)C(=O)O[C@H]1CC2(CC2)C[C@@H]2CC[C@H](C)[C@H](CC[C@@H]3C[C@@H](O)CC(=O)O3)[C@H]21 [1,1-dimethylpropyl --CH2 CH2 --] | 170 |
